Reference: patent US10596223B2, “JNK inhibitor molecules for treatment of various diseases” (Xigen Inflammation Ltd., priority 2011, dated 2020)
Entries after “also recorded” stand apart in the source; their conditions may differ. Square brackets hold non-standard residues; d marks the D form. Peptide text beside a SMILES is read from it.

Experiments:
[1] = Stability (half-life) in human serum, intact peptide by UPLC-MS; format: in vitro ADME; details: human serum (50% in FIG. 5; 10 and 50% in PBS), 0.1 mM peptide
Procedure: FIG. 5: Stability of JNK inhibitors with SEQ ID NOs: 172, 196 and 197 in 50% human serum. The JNK inhibitor with SEQ ID NO: 196 was totally degraded into amino acids residues within 6 hours (A). The JNK inhibitor with SEQ ID NO: 172 was completely degraded only after 14 days (B). The JNK inhibitor with SEQ ID NO: 197 was stable at least up to 30 days (B).
The JNK inhibitors with the sequence of SEQ ID NOs: 196, 197, and 172 (0.1 mM final concentration) were digested in human serum (10 and 50% in PBS 1×). The experiment was performed as described by Tugyi et al. (Proc Natl Acad Sci USA, 2005, 413-418). The remaining intact peptide was quantified by UPLC-MS. Stability was assessed for SEQ ID NOs: 196, 197, and 172 identically but in two separate assays. While the JNK inhibitor with SEQ ID NO: 196 was totally degraded into amino acids residues within 6 hours, the JNK inhibitor with SEQ ID NO: 172 was completely degraded only after 14 days. The JNK inhibitor with SEQ ID NO: 197 was still stable after 30 days.

primary human T-cells = assay: IL2 secretion by primary human T-cells; format: cell-based
Text: The JNK inhibitors used are indicated by their SEQ ID NO: 172 and 197.

[2] = test system: Primary Rat Whole Blood Cells; assay: Cytokine release in rat whole blood (LPS or PMA+ionomycin, 4 h); format: cell-based; details: 10 μM inhibitor, three activator concentrations
Procedure: Given are the results for the control, 1 μM of SEQ ID NO: 172, 3 μM of SEQ ID NO: 172, and 10 μM of SEQ ID NO: 172 at different levels of LPS (ng/ml).
FIG. 17 Dose dependent inhibition of IL-2 release in rat whole blood stimulated with PMA+ionomycin. JNK inhibitor with SEQ ID NO: 172 was added at three different concentrations, namely 1, 3 and 10 μM 1 h before stimulation with PMA+ionomycin. Three doses of activators were added (25/500 ng/mL, 50/750 ng/mL and 50/1000 ng/mL) for 4 h. IL-2 release was assessed in supernatant.
Whole blood is collected from anesthetized rat or human healthy volunteers using a venipuncture connected to a pre-labeled vacuum tube containing sodium citrate. Tubes are gently mixed by inversion 7-8 times; and are then kept at RT until stimulation. JNK inhibitor of SEQ ID NO: 172_is prepared […] concentrated in PBS, and 30 μl/well of mix is added into 96-well plate. Whole blood is diluted by 1:2 in PBS and 120 μl of diluted blood is added in each well where either PBS alone or JNK inhibitor of SEQ ID NO: 172 has been previously added. Whole blood is incubated at 37° C.; 85 rpm (Stuart Orbital incubator S1500) for 60 min. […] Cytokine (IL-6, IL-2, IFNγ and TNFα) were then measured using standard Elisa kits (e.g. from R&D Systems: DuoSet Elisas; or from BD Biosciences: BD Opteia Set Elisa). Results are expressed as pg/ml of supernatant of the measured cytokine. […]

[3] = test system: scopolamine-induced dry eye in mice; assay: Scopolamine-induced model of dry eye (TBUT, PRTT, histopathology); format: in vivo, mouse; details: for histological scores of the cornea compared with cyclosporine group: Day 22
Procedure: The objective of this study was to assess the effects of two different compounds, the all-D-retro-inverso JNK-inhibitor (poly-)peptide of SEQ ID NO: 197 and the JNK inhibitor (poly-)peptide of SEQ ID NO: 172, at three dose levels in a mouse model of scopolamine-induced dry eye.
The peptides of SEQ ID NO: 197 and SEQ ID NO: 172 were tested for efficacy in this murine model of dry eye. The peptides were both tested at a low, medium and a high dose. […] The vehicle, which also served as the negative control, was 0.9% Sodium Chloride for Injection USP.
The study consisted of a total of 9 groups of female C57BL/6 mice, comprising 8 groups of 12 mice each and an additional group of 4 mice. Bilateral short-term dry eye was induced by a combination of scopolamine hydrobromide (Sigma-Aldrich Corp., St. Louis, Mo.) injection (subcutaneous (SC), four times daily, 0.5 mg/dose, Days 0-21) and by exposing mice to the drying environment of constant air draft. […] Mice of Group 9 were maintained as un-induced, (no dry eye) untreated controls.
During the in-life (treatment) period, clinical observations were recorded once daily; slit-lamp examination (SLE) with corneal fluorescein staining, tear break-up time test (TBUT), and phenol red thread test (PRTT) were performed three times per week. Necropsies were performed on Day 22; eyes, eye lids, conjunctivae, and lacrimal glands were collected from both eyes of each animal. Tissues from the right eyes (oculus dexter, OD) were fixed and then evaluated microscopically. Tissues from the left eyes (oculus sinister; OS) were flash-frozen in liquid nitrogen and stored frozen at −80° C. for possible subsequent analyses.
Prior to the start of the study, the (poly-)peptides of SEQ ID NO: 172 and of SEQ ID NO: 197 were formulated in sterile saline (vehicle). Dosing solutions at each concentration were sterilized using 0.2-μm filters, aliquoted to multiple pre-labeled vials, and frozen at −20° C.
Prior to entry into the study, each animal underwent a SLE and indirect ophthalmic examination using topically-applied fluorescein. Ocular findings were recorded using the Draize scale ocular scoring. SLE and Draize scoring were repeated three times a week during the in-life period.
The TBUT test was conducted three times weekly by measuring the time elapsed in seconds between a complete blink after application of fluorescein to the cornea and the appearance of the first random dry spot in the tear film. […] At least ninety seconds later, corneal epithelial damage was graded using a slit-lamp with a cobalt blue filter after another drop of 0.1% fluorescein was reapplied to the cornea; the cornea then was scored per the Draize ocular scale.
Tear production was measured three times a week in both eyes using PRTT test strips (Zone-Quick; Menicon, Nagoya, Japan). Prior to the first treatment of the day, a thread was applied to the lateral canthus of the conjunctival fornix of each eye for 30 seconds under slit-lamp biomicroscopy. Tear migration up the tread (i.e., the length of the wetted cotton thread) was measured using a millimeter scale.
At necropsy on Day 22, both eyes from each animal, including the globes, lacrimal glands, eyelids, and conjunctivae, were excised.

[4] = topical ocular TID, Days 1 to 21

CC(C)C[C@H](NC(=O)[C@H](CC(N)=O)NC(=O)[C@H](CC(C)C)NC(=O)[C@@H](NC(=O)[C@@H](C)NC(=O)[C@@H]1CCCN1C(=O)[C@H](CCCNC(=N)N)NC(=O)[C@@H](CCCCN)NC(=O)[C@@H]1CCCN1C(=O)[C@H](CCCNC(=N)N)NC(=O)[C@@H](CCCNC(=N)N)NC(=O)[C@H](CCCNC(=N)N)NC(=O)[C@H](CCCNC(=N)N)NC(=O)[C@H](CCC(N)=O)NC(=O)[C@@H](CCCNC(=N)N)NC(=O)[C@H](CCCNC(=N)N)NC(=O)[C@H](CCCCN)NC(=O)[C@H](CCCCN)NC(=O)[C@H](N)CCCNC(=N)N)[C@@H](C)O)C(=O)N[C@H](Cc1ccccc1)C(N)=O [SEQ ID NO: 172, rKKRrQRRrRPkRPaTLNLf] (H-[dR]KKR[dR]QRR[dR]RP[dK]RP[dA]TLNL[dF]-NH2; N-terminus assumed)
completely degraded only after [1]: 14 days | IL2 secretion in response to CD3/CD28 stimulation (primary human T-cells): blocks IL2 secretion | IL2 secretion in response to PMA/Ionomycin (primary human T-cells): blocks IL2 secretion | PMA-iono-induced IL-2 release [2]: did efficiently reduce PMA-iono-induced IL-2 release | histological scores of the cornea compared with cyclosporine group ([3]; 0.2% (mid dose)): the most effective, after cyclosporine | histological scores of the cornea compared with cyclosporine group ([3]; 0.6% (high dose)): the most effective, after cyclosporine | TBUT AUC compared with vehicle control (Kruskal-Wallis) ([3]; Day 7 to Day 21, SEQ ID NO: 172 0.05%, 0.2% and 0.6%, cyclosporine 0.05%): significant increases in the TBUT AUC | PRTT in the last test, aqueous tear production ([3]; Day 21, mid and high-dose (0.2%, 0.6%)): therapeutic effects similar to cyclosporine | PRTT, production of aqueous tears, low, mid and high dose (in words) [3, 4]: significantly more aqueous tears compared to vehicle-treated animals | TBUT means, low, mid and high dose (in words) [3, 4]: above the vehicle group; also recorded: dose-dependent increase in TBUT
